Experimental data: patent US7223397B1, “Potentiation of anti-CD38-Immunotoxin cytotoxicity” (priority 1999, dated 2007)
Read-outs that look alike come from different tables or passages of the source.

Assays:
[1] = tested on: HL-60 cells with a mutated RARα gene; experiment: MTS cell viability assay, retinoic acid-resistant HL60R cells; format: cell-based
Method: These cells are resistant to retinoic acid-induced expression of the CD38 antigen due to a point mutation in the retinoic acid receptor alpha (RARα) gene. The cell line was cultured with increasing concentrations of immunotoxin (in ng/ml) under different conditions.
HL-60 cells with a mutated RARα gene that renders the cells resistant to the effects of retinoic acid were treated with immunotoxin in either the presence or absence of 5 nM retinoic acid.

CD38 = CD38 expression in tumor cells by flow cytometry after RA treatment; format: cell-based; conditions: 5 nM RA
Method: Table I lists the potential targets for anti-CD38 bound toxin treatment A number of different lymphoid tumor cell lines were treated with 5 nM all-trans-retinoic acid (RA). Afterwards, the expression of CD38 in untreated versus treated cell was measured by flow cytometry. […] The increase in CD38 expression ranges from 2.5 to 20 fold. Thus, retinoic acid can be used in all of these tumor types to increase the vulnerability of the tumor cells to immunotoxin treatment.

[2] = tested on: myeloid and lymphoid leukemia cells; conditions: retinoic acid 10^−13 M; cited from earlier work
HL-60 cells = experiment: MTS cell viability assay, HL-60 cells; format: cell-based; conditions: 3 days, presence or absence of 5 nM retinoic acid
Method: HL-60 cells were incubated with either immunotoxin alone or in the presence of 5 nM retinoic acid (RA). Increasing concentrations of unconjugated IB4 monoclonal antibody were added to the cells incubated with immunotoxin and retinoic acid. After three days, the cells were assayed for viability with the MTS assay. Briefly, 6.5 mg/ml MTS solution [(3-(4,5-dimethylthiazol-2-yl)-5-(3-carboxymethoxyphenyl)-2-(4-sulfophenyl)-2H-tetrazolium] and 0.5 mM PMS (phenazine methosulfate) solution were mixed at a ratio of 20:1. 20 μl of the combined MTS/PMS solution was placed in each well of a 96 well plate containing samples of the cells to be tested. The plate was incubated for 1–4 hours at 37° C. in a 5% CO2 atmosphere, after which time, the amount of formazan produced by live cells from cellular reduction of MTS was measured by reading the absorbance at 490 nm. The results are shown in FIG. 2.
HL-60 cells were preincubated overnight in either the presence or absence of 5 nM all-trans-retinoic acid. The cells were washed twice and incubated in increasing concentrations of immunotoxin in either the presence or absence of IB4 unconjugated anti-CD38 MoAb. After three days, the cell were assayed for viability.
HL-60 cells were incubated for three days with increasing concentrations of either immunotoxin or gelonin in either the presence or absence of 5 nM retinoic acid. […]

| Molecule | cell death (MTS) [1] | CD38 after RA treatment (CD38; AML cells) | CD38 after RA treatment (CD38; APL cells) | CD38 after RA treatment (CD38; Lymphomas) | CD38 after RA treatment (CD38; Myelomas) | induction of CD38 cell surface antigen expression [2] [fold] | cell death (MTS) ([1]; HL60R (mutated RARα), 3 days) | toxic effect (MTS cell viability) (HL-60 cells) |
| --- | --- | --- | --- | --- | --- | --- | --- | --- |
| CC1=C(/C=C/C(C)=C/C=C/C(C)=C/C(=O)O)C(C)(C)CCC1 [RA, all-trans-retinoic acid] | no appreciable cell death | 180 ± 20 | 120 ± 30 | 210 ± 10 | 180 ± 25 | 4 | – | – |
| gelonin | – | – | – | – | – | – | no appreciable cell death | no toxic effect |
